Patent US8410078B2, “Composition and methods to treat cardiac diseases” (University of Connecticut, priority 2006, dated 2013)

Assays:
CSQ mice = experiment: Chronic mini-pump administration in CSQ mice: lifespan and cardiac hypertrophy; assay type: in vivo, mouse
Source text: Mice displaying the CSQ model of severe cardiomyopathy and heart failure were bred and maintained by methods known in the art. The CSQ transgenic (TG) mice were originally provided by Dr. Larry Jones (Krannert Institute of Cardiology, Indiana University School of Medicine, Indiana), and developed hypertrophy followed by a lethal heart failure phenotype with death near the age of 3 months. Ventricular myocytes were obtained from 3-month old wild type (WT) and CSQ mice of either sex (26 WT, 47 TG) by an enzymatic dissociation procedure. Briefly, the hearts were rapidly excised from mice that had been anesthetized with pentobarbital and treated with 1000 Units of heparin. The aorta was cannulated and the heart perfused in a Langendorff apparatus with oxygenated (95% O2/5% CO2) Ca^2+-free solution (37° C.) for 5 minutes at a rate of 2.5 ml/min. The solution composition was: 126 mM NaCl, 4.4 mM KCl, 1.0 mM MgCl2, 18 mM NaHCO3, 11 mM Glucose, 4 mM HEPES, and 3 mM BDM (2,3-butanedione monoxime), (pH 7.3 adjusted with NaOH). Thereafter, the perfusing solution was changed to that containing 25 μM CaCl2 and liberase (70 μg/ml, Roche Molecular Biochemicals, Inc.) for 8-10 minutes. Cells were sedimented by gravity for 10-15 minutes and the pellet was resuspended in 200 μM Ca^2+-containing Tyrode's solution (containing 3 mM BDM), allowed to settle for 30 minutes at room temperature, and suspended with Tyrode's solution containing: 135 mM NaCl, 5.4 mM KCl, 1.0 mM CaCl2, 1.0 mM MgCl2, 10 mM HEPES and 10 mM dextrose (pH 7.4 adjusted with NaOH). The experiments were carried out at room temperature (22-23° C.) and were completed within 4-6 hours after myocyte isolation.
Cardiac myocyte cross-section area was quantified by methods known in the art. […] The images of cross-sectioned cells showing consistently round shapes were captured with Macrofire® PictureFrame (Optronics, Goleta, Calif.) and cross-section area measured with ImageProPlus® (MediaCybernetics, Silver Spring, Md.). Typically, 50 to 100 cross-sectional areas were determined and averaged per heart. […]

[1] = tested on: mouse thoracic aorta ring; experiment: Vascular reactivity of phenylephrine-preconstricted thoracic aorta rings; settings: pre-constricted with phenylephrine, 10^−9 to 10^−5 M
Experimental: Thoracic aortas were quickly removed from 8 to 10-week wild type (C57 BL6) mice, cut into 3 mm rings. After pre-constriction with phenylephrine (1 μM), increasing concentrations of acetylcholine or MRS2339 were added in a cumulative fashion to achieve a concentration-response curve. The % relaxation was determined as % decrease in ring tension (gram) compared to the tension before the addition of acetylcholine or MRS2339. Data were shown as mean±SEM.

## Nc1nc(Cl)nc2c1ncn2C1[C@H]2C[C@@]2(COP(=O)(O)O)[C@@H](O)[C@H]1O (stereo partly drawn) [MRS2339, (1′S,2′R,3′S,4′R,5′S)-4-(6-amino-2-chloro-9H-purin-9-yl)-1-[phosphoryloxymethyl]bicyclo[3.1.0]hexane-2,3-diol]
CSQ mice; 3 μM solution, about 6 μl per day for 28 days via mini-pump
  Median lifespan: 115 days
CSQ mice; chronic mini-pump treatment
  Cardiac myocyte cross-section area: 281±15 μm^2
  Heart weight/body weight ratio: 10.5±1.38
[1]
  Relaxation of aorta ring segments: did not induce relaxation
